Series [1] deals with T1, hERG (KCNH2) (Homo sapiens, UniProt Q12809). Nature of the series: Inhibition of human ERG expressed in HEK293 cells at 0.1 uM after 5 mins at -80 mV holding potential by patch clamp assay. It is filed as cell-based. The note with it: HEK293 cells expressing human ERG. On the technique in general: Patch clamp records ionic current or voltage across a cell membrane.
In series [2] the target is T1, hERG (KCNH2). The experiment in a line: Inhibition of human ERG expressed in HEK293 cells at 0.01 uM after 5 mins at -80 mV holding potential by patch clamp assay. It is filed as cell-based. The following applies: HEK293 cells expressing human ERG.
The target in series [3] is T1, hERG (KCNH2). Nature of the series: Inhibition of human ERG expressed in HEK293 cells at 10 uM after 5 mins at -80 mV holding potential by patch clamp assay. The note with it: HEK293 cells expressing human ERG. Type of series: cell-based.
For series [4], the target named is T1, hERG (KCNH2). The experiment in a line: Inhibition of human ERG expressed in HEK293 cells at 1 uM after 5 mins at -80 mV holding potential by patch clamp assay. Type of series: cell-based. The following applies: HEK293 cells expressing human ERG.
The target in a further series is Ryanodine receptor 2 (Homo sapiens, UniProt Q92736). Nature of the series: Induction of FKBP12.6 re-binding to PKA-phosphorylated-RyR2 (unknown origin) after 30 mins in presence of [35S]-FKBP12.6 by liquid scintillation counting.
A short description of series [5]: Cardiotoxicity in FKBP12.6 deficient mouse implanted with osmotic mini-pump assessed as reduction in resting heart rate in at 0.5 mg/kg/hr for 7 hrs. It is filed as toxicity, organism-based. The note with it: in vivo.
The target in series [6] is Ryanodine receptor 1 (Mus musculus) (UniProt E9PZQ0). Nature of the series: Induction of calstabin-1 binding to RYR1 in myocardial infarction-induced heart failure wild type mouse soleus muscle at 0.5 mg/kg/day dosed via implantable osmotic minipumps. Type of series: organism-based.
Chain of Ryanodine receptor 1 (Mus musculus) (E9PZQ0 whole entry): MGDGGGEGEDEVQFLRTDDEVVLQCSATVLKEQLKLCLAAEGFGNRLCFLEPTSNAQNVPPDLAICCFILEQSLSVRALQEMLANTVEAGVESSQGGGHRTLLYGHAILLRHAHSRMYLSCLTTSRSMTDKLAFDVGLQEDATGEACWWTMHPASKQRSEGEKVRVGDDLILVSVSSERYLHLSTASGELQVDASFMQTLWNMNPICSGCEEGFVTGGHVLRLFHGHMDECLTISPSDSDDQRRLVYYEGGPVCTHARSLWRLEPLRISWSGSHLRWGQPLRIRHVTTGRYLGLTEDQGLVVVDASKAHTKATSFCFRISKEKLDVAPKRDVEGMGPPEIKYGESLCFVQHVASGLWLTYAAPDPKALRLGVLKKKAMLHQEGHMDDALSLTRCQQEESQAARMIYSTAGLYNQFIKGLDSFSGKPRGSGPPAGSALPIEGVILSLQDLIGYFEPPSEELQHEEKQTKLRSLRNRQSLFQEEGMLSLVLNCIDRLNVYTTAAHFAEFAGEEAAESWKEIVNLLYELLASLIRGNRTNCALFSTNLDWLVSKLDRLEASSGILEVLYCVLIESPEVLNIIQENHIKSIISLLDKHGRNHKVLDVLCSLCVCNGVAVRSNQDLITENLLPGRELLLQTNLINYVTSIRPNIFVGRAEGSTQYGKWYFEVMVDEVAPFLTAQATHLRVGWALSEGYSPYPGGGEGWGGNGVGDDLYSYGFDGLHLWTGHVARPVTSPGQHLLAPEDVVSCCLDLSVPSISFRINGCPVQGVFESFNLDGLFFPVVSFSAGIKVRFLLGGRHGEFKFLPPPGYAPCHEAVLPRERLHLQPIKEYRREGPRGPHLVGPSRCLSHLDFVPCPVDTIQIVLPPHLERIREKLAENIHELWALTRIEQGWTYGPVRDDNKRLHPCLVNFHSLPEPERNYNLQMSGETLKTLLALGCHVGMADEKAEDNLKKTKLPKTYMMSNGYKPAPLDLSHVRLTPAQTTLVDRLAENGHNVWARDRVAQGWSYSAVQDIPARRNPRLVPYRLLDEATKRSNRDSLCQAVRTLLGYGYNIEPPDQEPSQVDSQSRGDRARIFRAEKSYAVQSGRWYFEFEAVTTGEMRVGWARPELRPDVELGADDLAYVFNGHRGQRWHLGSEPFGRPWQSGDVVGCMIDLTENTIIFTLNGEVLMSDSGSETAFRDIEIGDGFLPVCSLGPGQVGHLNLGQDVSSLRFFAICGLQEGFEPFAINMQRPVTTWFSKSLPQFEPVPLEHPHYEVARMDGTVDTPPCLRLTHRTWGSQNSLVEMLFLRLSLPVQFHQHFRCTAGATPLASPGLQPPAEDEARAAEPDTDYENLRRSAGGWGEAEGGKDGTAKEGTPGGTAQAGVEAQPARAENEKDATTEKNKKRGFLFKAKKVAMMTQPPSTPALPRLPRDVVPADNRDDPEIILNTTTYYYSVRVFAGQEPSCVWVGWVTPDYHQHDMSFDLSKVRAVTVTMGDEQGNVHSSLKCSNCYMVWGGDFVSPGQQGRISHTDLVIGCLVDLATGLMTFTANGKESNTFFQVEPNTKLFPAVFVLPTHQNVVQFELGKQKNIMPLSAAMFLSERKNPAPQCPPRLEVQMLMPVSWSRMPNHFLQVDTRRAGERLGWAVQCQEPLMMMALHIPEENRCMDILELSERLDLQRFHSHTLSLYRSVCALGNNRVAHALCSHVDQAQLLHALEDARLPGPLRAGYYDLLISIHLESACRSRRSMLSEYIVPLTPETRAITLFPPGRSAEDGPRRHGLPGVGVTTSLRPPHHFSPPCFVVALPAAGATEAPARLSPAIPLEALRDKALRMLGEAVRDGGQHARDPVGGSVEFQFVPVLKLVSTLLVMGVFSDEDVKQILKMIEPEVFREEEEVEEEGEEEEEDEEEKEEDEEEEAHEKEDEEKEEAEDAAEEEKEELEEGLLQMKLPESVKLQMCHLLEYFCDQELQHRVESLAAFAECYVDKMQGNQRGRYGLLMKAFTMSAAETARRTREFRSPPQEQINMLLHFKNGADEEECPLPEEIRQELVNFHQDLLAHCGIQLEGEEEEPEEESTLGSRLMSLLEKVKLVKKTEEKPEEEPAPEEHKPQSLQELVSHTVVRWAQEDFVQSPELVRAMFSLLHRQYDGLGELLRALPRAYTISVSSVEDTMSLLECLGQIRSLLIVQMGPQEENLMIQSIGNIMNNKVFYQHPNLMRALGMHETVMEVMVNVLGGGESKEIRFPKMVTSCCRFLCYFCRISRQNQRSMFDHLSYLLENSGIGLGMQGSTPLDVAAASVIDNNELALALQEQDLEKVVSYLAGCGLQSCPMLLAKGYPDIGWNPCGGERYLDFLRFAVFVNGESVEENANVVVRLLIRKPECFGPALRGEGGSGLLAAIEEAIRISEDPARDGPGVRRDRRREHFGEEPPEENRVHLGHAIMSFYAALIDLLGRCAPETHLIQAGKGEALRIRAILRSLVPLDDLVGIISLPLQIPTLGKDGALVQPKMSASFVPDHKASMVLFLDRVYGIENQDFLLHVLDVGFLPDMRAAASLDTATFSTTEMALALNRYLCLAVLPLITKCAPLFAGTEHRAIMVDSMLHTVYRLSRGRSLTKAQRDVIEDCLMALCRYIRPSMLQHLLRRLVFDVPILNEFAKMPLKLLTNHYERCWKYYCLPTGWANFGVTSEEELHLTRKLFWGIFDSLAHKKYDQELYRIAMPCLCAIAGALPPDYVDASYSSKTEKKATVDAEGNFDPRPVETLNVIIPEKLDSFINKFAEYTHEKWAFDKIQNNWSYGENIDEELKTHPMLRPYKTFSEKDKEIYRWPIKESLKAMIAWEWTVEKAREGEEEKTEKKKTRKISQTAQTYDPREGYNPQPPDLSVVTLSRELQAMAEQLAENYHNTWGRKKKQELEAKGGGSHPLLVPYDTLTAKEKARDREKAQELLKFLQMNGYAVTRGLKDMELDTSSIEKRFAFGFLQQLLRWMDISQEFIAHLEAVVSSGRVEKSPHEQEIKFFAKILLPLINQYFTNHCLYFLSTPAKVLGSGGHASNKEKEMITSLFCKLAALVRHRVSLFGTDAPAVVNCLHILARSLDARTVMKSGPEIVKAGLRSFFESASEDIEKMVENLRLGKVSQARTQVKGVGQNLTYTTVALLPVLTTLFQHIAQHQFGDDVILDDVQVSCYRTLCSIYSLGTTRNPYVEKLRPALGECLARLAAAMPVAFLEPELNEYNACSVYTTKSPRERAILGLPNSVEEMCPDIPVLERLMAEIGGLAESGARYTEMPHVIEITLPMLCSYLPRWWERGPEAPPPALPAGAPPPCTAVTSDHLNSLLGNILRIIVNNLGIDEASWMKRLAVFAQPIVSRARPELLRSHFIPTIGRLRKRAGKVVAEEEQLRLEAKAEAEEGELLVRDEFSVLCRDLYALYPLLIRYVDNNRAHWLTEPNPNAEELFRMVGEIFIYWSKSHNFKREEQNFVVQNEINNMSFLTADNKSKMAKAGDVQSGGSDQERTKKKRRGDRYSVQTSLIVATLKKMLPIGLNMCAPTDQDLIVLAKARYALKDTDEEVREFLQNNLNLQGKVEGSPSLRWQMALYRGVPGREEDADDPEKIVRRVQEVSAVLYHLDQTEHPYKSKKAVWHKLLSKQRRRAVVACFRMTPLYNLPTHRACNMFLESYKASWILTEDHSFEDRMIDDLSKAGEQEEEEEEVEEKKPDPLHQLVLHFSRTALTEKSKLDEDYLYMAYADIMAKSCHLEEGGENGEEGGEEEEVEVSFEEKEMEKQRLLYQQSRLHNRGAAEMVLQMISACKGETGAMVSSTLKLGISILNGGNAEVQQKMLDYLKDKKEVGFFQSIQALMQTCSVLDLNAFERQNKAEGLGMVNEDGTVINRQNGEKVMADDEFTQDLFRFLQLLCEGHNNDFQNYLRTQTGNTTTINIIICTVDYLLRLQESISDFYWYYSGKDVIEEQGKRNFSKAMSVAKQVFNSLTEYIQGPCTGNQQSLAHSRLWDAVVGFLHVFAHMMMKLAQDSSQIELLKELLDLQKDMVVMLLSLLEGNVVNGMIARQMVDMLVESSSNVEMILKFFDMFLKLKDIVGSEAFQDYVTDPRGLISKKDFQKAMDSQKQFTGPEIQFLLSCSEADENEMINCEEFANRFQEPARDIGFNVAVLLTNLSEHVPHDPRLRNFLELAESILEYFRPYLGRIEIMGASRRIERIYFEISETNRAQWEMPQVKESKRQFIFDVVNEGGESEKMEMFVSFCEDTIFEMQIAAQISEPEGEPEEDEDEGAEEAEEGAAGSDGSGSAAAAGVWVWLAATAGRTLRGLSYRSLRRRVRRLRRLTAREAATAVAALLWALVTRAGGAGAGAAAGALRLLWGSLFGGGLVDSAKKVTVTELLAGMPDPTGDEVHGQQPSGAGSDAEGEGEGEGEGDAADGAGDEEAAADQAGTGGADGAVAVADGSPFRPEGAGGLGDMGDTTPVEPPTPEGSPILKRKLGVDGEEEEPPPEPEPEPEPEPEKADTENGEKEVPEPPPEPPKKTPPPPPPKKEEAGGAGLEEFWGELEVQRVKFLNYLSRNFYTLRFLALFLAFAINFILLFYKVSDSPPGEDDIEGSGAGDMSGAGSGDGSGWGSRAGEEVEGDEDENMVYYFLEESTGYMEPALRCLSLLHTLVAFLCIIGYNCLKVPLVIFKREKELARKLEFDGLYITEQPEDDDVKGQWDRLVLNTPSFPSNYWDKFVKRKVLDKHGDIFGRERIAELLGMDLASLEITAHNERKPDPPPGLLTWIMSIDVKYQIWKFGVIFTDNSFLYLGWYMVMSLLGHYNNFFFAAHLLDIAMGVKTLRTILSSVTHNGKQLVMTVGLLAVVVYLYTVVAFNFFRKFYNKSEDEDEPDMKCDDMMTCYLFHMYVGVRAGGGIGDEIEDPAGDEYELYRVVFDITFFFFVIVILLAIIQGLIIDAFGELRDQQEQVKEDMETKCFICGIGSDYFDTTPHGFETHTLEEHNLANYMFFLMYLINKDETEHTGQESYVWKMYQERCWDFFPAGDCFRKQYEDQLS
The species entered for series [7] is Mus musculus. Nature of the series: Antiarrhythmic activity in haploinsufficient FKBP12.6 expressing mouse assessed as reduction in sustained ventricular tachycardia at 1 uM under testing exercise followed by epinephrine injection relative to control. It is filed as functional.
For series [8], the target named is Ryanodine receptor 1 (Mus musculus) (UniProt E9PZQ0). Nature of the series: Inhibition of PKA-induced RyR1 phosphorylation in myocardial infarction-induced heart failure mouse soleus muscle at 0.5 mg/kg/day dosed via implantable osmotic minipumps. Type of series: organism-based.
Series [9] deals with Mus musculus. Nature of the series: Improvement in soleus muscle fatigability in myocardial infarction-induced heart failure mouse model at 0.5 mg/kg/day relative to control. It is filed as functional, organism-based.
In series [10] the target is Ryanodine receptor 1 (Mus musculus) (UniProt E9PZQ0). The experiment in a line: Induction of calstabin-2 binding to RyR1 in mouse skeletal muscle at >50 nM.
For series [11], the system named is Mus musculus. The experiment in a line: Reduction in PKA-phosphorylation of RyR2 in myocardial infarction-induced heart failure mouse model at 0.5 mg/kg/hr after 28 days post myocardial infarction. It is filed as functional, organism-based.
Series [12] is filed under the species Mus musculus. Nature of the series: Reduction in RyR2 channel opening probability in haploinsufficient FKBP12.6+/- mouse in the presence of […]. Type of series: functional.
Series [13] deals with Ryanodine receptor 1 (Mus musculus) (UniProt E9PZQ0). Nature of the series: Induction of normalization of RYR1 function in mdx dystrophin deficient mouse soleus muscle assessed as decrease in average channel close dwell time at 1 uM. It is filed as tissue-based.
Series [14] shares this target. The experiment in a line: Normalization of RYR1 in myocardial infarction-induced heart failure mouse soleus muscle assessed as decrease in average channel close dwell time. It is filed as tissue-based.
For series [15] the target is unchanged. Nature of the series: Induction of normalization of RYR1 function in mdx dystrophin deficient mouse soleus muscle assessed as increase in average channel open dwell time at 1 uM. Type of series: tissue-based.
Series [16] shares this target. The experiment in a line: Induction of calstabin-1 binding to PKA-phosphorylated RyR1 in mouse skeletal muscle at >50 nM.
Series [17] shares this target. The experiment in a line: Induction of calstabin-2 binding to PKA-phosphorylated RyR1 in mouse skeletal muscle at >50 nM.
Series [18] has the same target. Nature of the series: Induction of normalization of RYR1 function in mdx dystrophin deficient mouse soleus muscle assessed as increase in channel open probability at 1 uM. Type of series: tissue-based.
The subject of series [19] is Mus musculus. Nature of the series: Antiarrhythmic activity in haploinsufficient FKBP12.6 expressing mouse assessed as plasma concentration showing prevention of sudden cardiac death dosed via osmotic mini-pump under testing exercise followed by epinephrine injection relative to control. Type of series: functional, organism-based.
In series [20] the target is Ryanodine receptor 1 (Mus musculus) (UniProt E9PZQ0). The experiment in a line: Induction of calstabin-1 binding to RYR1 in myocardial infarction-induced heart failure calsiabin2-/- mouse soleus muscle at 0.5 mg/kg/day dosed via implantable osmotic minipumps. Type of series: organism-based.
Series [21] shares this target. The experiment in a line: Normalization of RYR1 in myocardial infarction-induced heart failure mouse soleus muscle assessed as increase in average channel open dwell time. Type of series: tissue-based.
The target is the same in series [22]. Nature of the series: Induction of calstabin-1 binding to RyR1 in mouse skeletal muscle at >50 nM.
A short description of series [23]: Cardiotoxicity in haploinsufficient FKBP12.6 expressing mouse assessed as reduction in non-sustained ventricular tachycardia at 1 uM under testing exercise followed by epinephrine injection relative to control. It is filed as toxicity. The note with it: in vivo.
Series [24] concerns Mus musculus. Nature of the series: Antiarrhythmic activity in haploinsufficient FKBP12.6 expressing mouse assessed as plasma concentration showing prevention of cardiac arrhythmias dosed via osmotic mini-pump under testing exercise followed by epinephrine injection relative to control. It is filed as functional, organism-based.
Series [25] relates to Mus musculus. Nature of the series: Improvement in soleus muscle fatigability in myocardial infarction-induced heart failure calstabin2-deficient knockout mouse at 0.5 mg/kg/day relative to control. It is filed as functional, organism-based.
Series [26] in a line: Cardiotoxicity in haploinsufficient FKBP12.6 expressing mouse implanted with osmotic mini-pump assessed as reduction in resting heart rate in at 0.5 mg/kg/hr for 7 hrs. The note with it: in vivo. It is filed as toxicity, organism-based.

Activity calls are given as the source filed them. The rule behind the calls is not given here.

The term inhibition denotes the drop in the measured response relative to a control, in per cent. Regarding `O=C(NO)N1CCSc2ccccc2C1`, the inhibition at 5 min, 0.1 µM at hERG (KCNH2) [1] worked out at 4.8%. For the same molecule, on hERG (KCNH2) [2], the inhibition at 5 min, 0.01 µM came to 1.9%. Also, the inhibition at 5 min, 10 µM against hERG (KCNH2) [3] was 9.5%. The molecule further registered an inhibition at 5 min, 1 µM at hERG (KCNH2) [4] of 1.3%.

Molecule `COc1ccc2c(c1)CN(C(=O)c1ccc(N=[N+]=[N-])cc1O)CCS2` had an inhibition at 5 min, 0.1 µM on hERG (KCNH2) [1] of 3.6%. Further, the inhibition at 5 min, 0.01 µM on hERG (KCNH2) [2] came to 1.3%. Further, at hERG (KCNH2) [3], the inhibition at 5 min, 10 µM amounted to 14%. Also, the inhibition at 5 min, 1 µM against hERG (KCNH2) [4] amounted to 4.1%.

The molecule `COc1ccc2c(c1)CN(C(=O)C(=O)O)CCS2` [ALADORIAN SODIUM] gave an inhibition at 5 min, 0.1 µM at hERG (KCNH2) [1] of 6%. Also, the inhibition at 5 min, 0.01 µM on hERG (KCNH2) [2] turned out to be 0.2%. For the same molecule, on hERG (KCNH2) [3], the inhibition at 5 min, 10 µM came out at 6.7%. Moreover, the inhibition at 5 min, 1 µM against hERG (KCNH2) [4] worked out at 5.5%.

In general, EC50 refers to the midpoint of the concentration-response curve. Consider `COc1ccc2c(c1)CN(S(=O)(=O)Nc1cccnc1)CCS2`, for which the EC50 on Ryanodine receptor 2 was 77 nM.

`O=C(O)C(=O)N1CCSc2ccccc2C1`: the inhibition at 5 min, 0.1 µM against hERG (KCNH2) [1] turned out to be 7.5%. On hERG (KCNH2) [2], this molecule gave an inhibition at 5 min, 0.01 µM of 1.3%. Also, the inhibition at 5 min, 10 µM against hERG (KCNH2) [3] came to 4.1%. This molecule showed an inhibition at 5 min, 1 µM at hERG (KCNH2) [4] of 3.6%.

On to `COc1ccc2c(c1)CN(C(=O)CCN1CCC(Cc3ccccc3)CC1)CCS2.Cl`, for which the Activity result in [5], in series [23] and in [26] was “Non-Toxic” throughout. Moreover, the result (in series [6]; in the series listed under Mus musculus [7]; in the series on Mus musculus [9]; in series [10]; in the series on Mus musculus [11]; in the series listed under Mus musculus [12]) was Active. Further, the outcome (in series [16]; in series [17]; in series [18]; in [20]; in [22]; with Mus musculus [25]) was Active. For the same molecule, the inhibition result in series [8] was “Active”. Besides, the TIME was 0.000287 h in [13], 0.000435 to 0.000441 h in series [14], 4.44e-07 h in [15] and 4.17e-07 to 5e-07 h in series [21]. Besides, the Cp with Mus musculus [19] and in the series with Mus musculus [24] was 1 µM each time.

On hERG (KCNH2) [1], `COc1ccc2c(c1)CN(C)CCS2` gave an inhibition at 5 min, 0.1 µM of 4%. In addition, the inhibition at 5 min, 0.01 µM on hERG (KCNH2) [2] was 2.9%. Moreover, the inhibition at 5 min, 10 µM against hERG (KCNH2) [3] was determined as 32.1%. At hERG (KCNH2) [4], this molecule showed an inhibition at 5 min, 1 µM of 6.2%.

As to `COc1ccc2c(c1)CN([P@@](=O)(OC)c1ccccc1)CCS2`, the half-maximal effective concentration (EC50) at Ryanodine receptor 2 came out at 174 nM.

In turn, `COc1ccc2c(c1)CN(C(=O)N1CCCCC1)CCS2` displayed an inhibition at 5 min, 0.1 µM at hERG (KCNH2) [1] of 3.7%. At hERG (KCNH2) [2], the inhibition at 5 min, 0.01 µM is 1.8%. The same molecule showed an inhibition at 5 min, 10 µM at hERG (KCNH2) [3] of 24.2%. The same molecule showed an inhibition at 5 min, 1 µM at hERG (KCNH2) [4] of 6.1%.

Source of the values: ChEMBL document CHEMBL3880390, “Agents for preventing and treating disorders involving modulation of the RYR receptors” (2014).
